Assay results published in US9134328B2, “Methods of using benzothiazole derivative compounds and compositions” (University of Pittsburgh—Of the Commonwealth System of …, priority 2003, dated 2015).

How the values were obtained:
[1] = In vivo mouse brain entry studies; set-up: species or system female Swiss-Webster mice
Description: This study reflects brain entry and clearance from normal brain tissue.
The mice were anesthetized and killed by cardiac excision following cardiac puncture to obtain arterial blood samples at 2 minutes or 30 minutes post-injection. The mouse brains were rapidly excised and divided into the cerebellum and the remaining whole brain (including brain stem) fractions. The brain samples were counted in a gamma well-counter, and the counts were decay-corrected to the time of injection relative to ^125I or ^18F standards prepared from the injection solution to determine the percent injected dose (% ID) in the samples. The brain samples were weighed to determine the percent injected dose per gram tissue (% ID/g), and this quantity was multiplied by the whole body weight (in kg) to determine the body-weight normalized radioactivity concentration [(% ID-kg)/g] of each tissue sample.

[2] = In vivo baboon PET imaging studies; settings: for peak maximum radioactivity remaining in brain at later time points / early-to-late brain radioactivity concentration: baboon brain; for early-to-late brain radioactivity concentration: ratio of early to late radioactivity concentration; for rate of non-specific clearance (t1/2): baboon cerebellum (reference region devoid of specific binding); for higher concentration of radioactivity at 90 minutes in white matter regions than in gray matter regions / clearance half-time from baboon brain gray matter / brain penetration of radioactivity at early time points: control baboon; for higher concentration of radioactivity at 90 minutes in white matter regions than in gray matter regions: 90 minutes post-injection, white matter vs gray matter such as temporal cortex; for clearance half-time from baboon brain gray matter / brain penetration of radioactivity at early time points: intravenous injection; for clearance half-time from baboon brain gray matter: PET; for brain penetration of radioactivity at early time points: PET time-activity curve, all three brain regions
Description: PET imaging studies in adult baboons (Papio anubis) (weight 15-35 kg, ages 6-12 years) were performed with Compound B and Compound C in accordance with the Guide for the Care and Use of Laboratory Animals adopted by NIH and with the approval of the local Institutional Animal Care and Use Committee. Prior to PET imaging, the animals were initially sedated with ketamine (10-15 mg/kg, i.m.), given atropine (0.5 mg, i.m.) to control salivation and heart rate, and intubated. The baboons were subsequently maintained on a ventilator with isofluorane (0.5-1.25%) anesthesia and medical air. Pancuronium bromide was administered as necessary (intravenously, up to 0.06 mg/kg/hour, titrated to effect) to keep the animals immobilized during the study. A femoral artery catheter was inserted to monitor blood pressure and sample arterial blood, and an intravenous catheter was placed in an antecubital vein for radiotracer injection and to administer fluids as necessary throughout the course of the imaging study. Blood pressure, heart and respiratory rates, and expired CO2 and oxygen saturation levels were monitored continuously during the PET studies. The baseline rectal body temperature (˜37° C.) was maintained using a heating blanket (Gaymar, Orchard Park, N.Y.) and temperature regulator (Yellow Springs Instruments, Yellow Springs, Ohio). Prior to scanning, the baboon's head was fixed so that the image planes were acquired approximately parallel to the orbital-meatal line.
PET data were acquired using an ECAT HR+PET scanner (CTI PET Systems, Knoxyille, Tenn.) in 3D imaging mode (63 parallel slices; 15.2 cm axial field-of-view; 4.1 mm full-width half-maximum in-plane resolution). A Neuro-Insert (CTI PET Systems) was used to reduce the contribution of scattered photon events. After the baboons were positioned in the PET scanner, a windowed transmission scan (10-15 minutes) was obtained for attenuation correction of the PET emission data using rotating ^68Ge/^68Ga rods. Compound B and Compound C were administered intravenously over 20 seconds, and a dynamic series of PET scans were acquired over 90 minutes using 26 frames of increasing length (6×20 seconds; 4×30 seconds; 6×60 seconds; 4×5 minutes; 6×10 minutes). Approximately 185 MBq (˜5 mCi) of a high specific activity (>14.8 GBq/μmol) Compound B or Compound C was injected in a baboon. In other studies, 148-296 MBq (4-8 mCi) of a high specific activity (>18.5 GBq/μmol) reference PET radiotracer was injected, including either [^11C](+)-McN5652, [carbonyl-^11C]WAY100635, or [^18F]altanserin. The PET data were reconstructed using a Hanning filter (Nyquist cut-off) and corrected for decay, photon attenuation, and scatter.
An MRI scan was obtained for each baboon using a 1.5T GE Signa scanner (GE Medical Systems, Milwaukee, Wis.) equipped with a standard head coil. A volumetric spoiled gradient recalled (SPGR) MR sequence with parameters for high contrast among gray matter, white matter, and cerebral spinal fluid (CSF) was acquired in the coronal plane (TE=5, TR=24, flip angle=40°, slice thickness=1.5 mm, NEX=2, field of view 12 cm, voxel size=0.94×1.25×1.5 mm). Each individual baboon's MR image was coregistered to the PET data using the automated image registration (AIR) algorithm for cross-modality image alignment and reslicing. The initial 16 frames ([…] post-injection) of the dynamic PET images were summed together into images consisting of a single frame. Prior to co-registration, both the MR and summed PET images were edited using the ANALYZE software package (Mayo Clinic. Rochester, Minn.) to remove extracerebral tissues that could possibly confound the co-registration process. The edited MR images were then coregistered to the summed PET image and resliced to yield MR images in the same spatial orientation and resolution as the summed PET images.

[3] = baboon cerebellar time-activity curves, reference PET radioligands

Row | Compound | peak maximum radioactivity remaining in brain at later time points [2] | early-to-late brain radioactivity concentration [2] | rate of non-specific clearance (t1/2) [2] [min] | higher concentration of radioactivity at 90 minutes in white matter regions than in gray matter regions [2] [%] | clearance half-time from baboon brain gray matter [2] | brain penetration of radioactivity at early time points [2] | non-specific binding clearance rate (in words) [2, 3] | also measured
1 | CNc1ccc(-c2nc3ccc(O)cc3s2)cc1[18F] [Compound B, 2-(3-[^18F]-fluoro-4-methylamino-phenyl)-benzothiazol-6-ol] | about 25% | about 4 | 17 | ~30 | about 17 minutes | about 0.40 % ID-kg/g | – | 2 min./30 min. Ratio ([1]; mouse, in vivo): 10; Radioactivity Conc. at 2 min. ([1]; mouse, in vivo): 0.29 % ID-kg/g; Radioactivity Conc. at 30 min. ([1]; mouse, in vivo): 0.030 % ID-kg/g; brain entry and clearance (in words) ([1]; mouse, in vivo): relatively high brain entry at early time points and fast clearance at later time points
2 | Oc1ccc2nc(-c3ccc(NCCC[18F])cc3)sc2c1 [Compound C, 2-[4-(3-^18F-fluoro-propylamino)-phenyl]benzothiazol-6-ol] | about 15% | about 6 | 10 | < 10 | about 10 minutes | about 0.22 % ID-kg/g | – | brain entry and clearance (in words) ([1]; mouse brain, 2 and 30 minutes post-injection): relatively high brain entry at early time points and fast clearance at later time points; Radioactivity Conc. at 2 min. ([1]; mouse brain, 2 minutes post-injection, lateral tail vein injection, wild type mice without amyloid deposits): 0.17 % ID-kg/g; Radioactivity Conc. at 30 min. ([1]; mouse brain, 30 minutes post-injection, lateral tail vein injection, wild type mice without amyloid deposits): 0.011 % ID-kg/g; 2 min./30 min. Ratio ([1]; ratio of 2 minutes-to-30 minutes (% ID-kg)/g values, mouse brain, measure of non-specific binding clearance rate): 16
3 | [11CH3]Sc1ccc([C@@H]2CN3CCC[C@@H]3c3ccccc32)cc1 [[^11C](+)-McN5652, reference compound] | – | – | – | – | – | – | relatively slow in vivo clearance | –
4 | O=C(c1ccc([18F])cc1)C1CCN(CCn2c(=S)[nH]c3ccccc3c2=O)CC1 [[^18F]altanserin, reference compound] | – | – | – | – | – | – | relatively rapid non-specific binding clearance rates | –
5 | COc1ccccc1N1CCN(CCN(c2ccccn2)[11C](=O)C2CCCCC2)CC1 [[carbonyl-^11C]WAY100635, reference compound] | – | – | – | – | – | – | – | non-specific binding clearance rate (in words) ([2]; in vivo): relatively rapid non-specific binding clearance rates
